Laboratory results reported in patent US9504729B2, “Antiangiogenic small molecules and methods of use” (The United States of America, as represented by the …, priority 2009, dated 2016).

Test system: angiogenesis genes in dermal microvascular endothelial cells
Assay: Real time RT-PCR of angiogenesis gene expression during endothelial tube formation
Assay type: cell-based
Conditions: 1 μM SM, 24 hours
Experimental: For gene expression studies, three independent experiments were run for each SM tested. 90.000 cells/well (6 wells/treatment) of dermal microvascular endothelial cells (Lonza, Walkersville, Md.) were seeded on polymerized GELTREX™ gel matrix (Invitrogen, Carlsbad, Calif.) in 24 well plates. Wells were immediately treated with the same volume of 1 μM SM or PBS. After 24 hours incubation at 37° C. and 5% CO2, cells were extracted using Cell Recovery Solution (BD Biosciences, San Jose, Calif., Cat. #354253). Total RNA was extracted with the RNeasy Mini Kit (Qiagen, Valencia, Calif., Cat. #74104), and retrotranscribed using […]® First-Strand reverse transcriptase (Invitrogen, Carlsbad, Calif., Cat. #11904-018). The real time PCR reactions were performed in an Opticon 2 cycler (MJ Research, Waltham, Mass.). Amplification was performed in a final volume of 25 μl, containing 2 μl cDNA (1:10 dilution from the reversed transcribed reaction) and 2 μl of primer mixture (10 μM each of forward and reverse primers). Samples were amplified as follows: after initial denaturation at 95 C for 2 minutes, reactions were run for 46 cycles at 95° C. for 30 seconds, 60° C. for 30 seconds, and 72° C. for 45 seconds. Fluorescence was measured in every cycle and a melting curve was run after the PCR by increasing temperature from 50 to 96° C. (in 0.5° C. increments). A defined single peak was obtained for all amplicons, thus confirming the specificity of the amplification.
The genes that were monitored were selected based on their relevance to the angiogenesis process. All experiments were done in triplicate. The results are shown in the volcano plots of FIG. 17. Log 2 fold-change is presented in the X-axis and log 10 P value in the Y-axis.

O=C1C(=Cc2ccccc2)C(NC2CCCCC2)c2ccccc21 (centres unmarked) [compound 150117]
Log2 fold-change of gene expression: 1839: 0.9 | Log2 fold-change of gene expression: 4247: −0.1 | Log2 fold-change of gene expression: 5569: −0.1 | Log2 fold-change of gene expression: 8131: −0.5 | Log2 fold-change of gene expression: 9569: −4.2 | Log2 fold-change of gene expression: 10988: 0.8 | Log2 fold-change of gene expression: 23001: −1.0 | Log2 fold-change of gene expression: 55332: −1.7 | Log2 fold-change of gene expression: 57722: −0.9 | Log2 fold-change of gene expression: 58488: 0.3 | Log2 fold-change of gene expression: 90780: −1.4 | Log2 fold-change of gene expression: 134265: −1.0 | Log2 fold-change of gene expression: AKT1: 1.6 | Log2 fold-change of gene expression: ANGPT1: 1.7 | Log2 fold-change of gene expression: ANGPT2: −1.2 | Log2 fold-change of gene expression: ANGPTL3: 1.8 | Log2 fold-change of gene expression: ANGPTL4: −4.0 | Log2 fold-change of gene expression: ANPEP: −1.7 | Log2 fold-change of gene expression: ANTXR1: −4.2 | Log2 fold-change of gene expression: APOE: −1.0 | Log2 fold-change of gene expression: ARHGEF1: −2.0 | Log2 fold-change of gene expression: Acvrl1: −1.2 | Log2 fold-change of gene expression: Adcy4: −0.5 | Log2 fold-change of gene expression: BAL1: 0.8 | Log2 fold-change of gene expression: BMP1: −0.4 | Log2 fold-change of gene expression: C1orf54: −1.3 | Log2 fold-change of gene expression: CALD1: 1.1 | Log2 fold-change of gene expression: CCL2: 0.9 | Log2 fold-change of gene expression: CCL11: 0.7 | Log2 fold-change of gene expression: CD248: −0.4 | Log2 fold-change of gene expression: CDH5: −1.6 | Log2 fold-change of gene expression: CENTD3: −0.2 | Log2 fold-change of gene expression: CLIC1: 0.0 | Log2 fold-change of gene expression: COL4A3: 2.4 | Log2 fold-change of gene expression: COL18A1: 0.8 | Log2 fold-change of gene expression: COMT: −1.0 | Log2 fold-change of gene expression: CST4: −0.1 | Log2 fold-change of gene expression: CTTNBP2NL: −2.3 | Log2 fold-change of gene expression: CXCL3: 0.8 | Log2 fold-change of gene expression: CXCL5: −3.5 | Log2 fold-change of gene expression: CXCL6: 1.2 | Log2 fold-change of gene expression: CXCL9: 1.2 | Log2 fold-change of gene expression: CXCL10: −1.7 | Log2 fold-change of gene expression: Calcr1: −5.4 | Log2 fold-change of gene expression: Caskin2: −2.7 | Log2 fold-change of gene expression: Ccbp2: 0.4 | Log2 fold-change of gene expression: Cldn5: 0.1 | Log2 fold-change of gene expression: DGKG: 3.4 | Log2 fold-change of gene expression: DKK3: −3.3 | Log2 fold-change of gene expression: DLL4: 5.5 | Log2 fold-change of gene expression: DUT: −0.2 | Log2 fold-change of gene expression: EFNA1: 0.4 | Log2 fold-change of gene expression: EFNA3: −1.8 | Log2 fold-change of gene expression: EFNB2: 0.4 | Log2 fold-change of gene expression: EGF: −2.3 | Log2 fold-change of gene expression: ENG: −0.1 | Log2 fold-change of gene expression: EPHB4: −1.2 | Log2 fold-change of gene expression: EREG: −2.4 | Log2 fold-change of gene expression: ESAM1: −2.6 | Log2 fold-change of gene expression: EXTL3: 0.0 | Log2 fold-change of gene expression: Egf17: −3.3 | Log2 fold-change of gene expression: Ehd4: −0.6 | Log2 fold-change of gene expression: Entpd1: −8.9 | Log2 fold-change of gene expression: Epas1: 0.4 | Log2 fold-change of gene expression: EphB1: 0.7 | Log2 fold-change of gene expression: Erg: −3.2 | Log2 fold-change of gene expression: FGF1: −3.8 | Log2 fold-change of gene expression: FGF2: 0.0 | Log2 fold-change of gene expression: FGFR3: 1.0 | Log2 fold-change of gene expression: FIGF: 2.4 | Log2 fold-change of gene expression: FLT1: −0.5 | Log2 fold-change of gene expression: Fgd5: −1.2 | Log2 fold-change of gene expression: GPCR124: −2.9 | Log2 fold-change of gene expression: GRRP1: 0.0 | Log2 fold-change of gene expression: Grp116: −3.1 | Log2 fold-change of gene expression: HAND2: 1.5 | Log2 fold-change of gene expression: HGF: 1.5 | Log2 fold-change of gene expression: HIF1A: −1.8 | Log2 fold-change of gene expression: HPSE: −0.2 | Log2 fold-change of gene expression: Hspa12b: −3.5 | Log2 fold-change of gene expression: ID1: 0.3 | Log2 fold-change of gene expression: ID3: 0.5 | Log2 fold-change of gene expression: IFNA1: 1.9 | Log2 fold-change of gene expression: IFNB1: 2.1 | Log2 fold-change of gene expression: IFNG: −1.9 | Log2 fold-change of gene expression: IGF1: −0.2 | Log2 fold-change of gene expression: IL1B: 9.5 | Log2 fold-change of gene expression: IL6: 2.2 | Log2 fold-change of gene expression: IL8: 6.0 | Log2 fold-change of gene expression: ITGAV: −1.8 | Log2 fold-change of gene expression: ITGB3: −1.4 | Log2 fold-change of gene expression: Icam1: 0.6 | Log2 fold-change of gene expression: Icam2: 0.0 | Log2 fold-change of gene expression: JAG1: 0.3 | Log2 fold-change of gene expression: KDR: −2.1 | Log2 fold-change of gene expression: Kifc1: −0.1 | Log2 fold-change of gene expression: LAMAS5: −2.2 | Log2 fold-change of gene expression: LECT1: −0.2 | Log2 fold-change of gene expression: LEP: −0.2 | Log2 fold-change of gene expression: Lasts2: 0.3 | Log2 fold-change of gene expression: Lrrk1: −1.8 | Log2 fold-change of gene expression: MDK: −1.5 | Log2 fold-change of gene expression: MMP2: −0.6 | Log2 fold-change of gene expression: MMP9: −0.3 | Log2 fold-change of gene expression: MMP11: −0.2 | Log2 fold-change of gene expression: MRC2: −0.7 | Log2 fold-change of gene expression: Mmm2: −3.4 | Log2 fold-change of gene expression: Myo1b: −2.7 | Log2 fold-change of gene expression: NID1: −5.2 | Log2 fold-change of gene expression: NM023516: 0.6 | Log2 fold-change of gene expression: NRP1: −2.0 | Log2 fold-change of gene expression: NRP2: −3.2 | Log2 fold-change of gene expression: Notch4: −0.7 | Log2 fold-change of gene expression: Npr3: 0.5 | Log2 fold-change of gene expression: PALD: −1.7 | Log2 fold-change of gene expression: PDCD2: −0.9 | Log2 fold-change of gene expression: PDGFA: −0.9 | Log2 fold-change of gene expression: PECAM1: −2.5 | Log2 fold-change of gene expression: PGF: −1.6 | Log2 fold-change of gene expression: PLAU: 0.0 | Log2 fold-change of gene expression: PLG: −3.9 | Log2 fold-change of gene expression: PNMT: −0.4 | Log2 fold-change of gene expression: PROK2: 0.7 | Log2 fold-change of gene expression: PTGS1: 0.3 | Log2 fold-change of gene expression: PTPRCAP: 0.2 | Log2 fold-change of gene expression: Pltp: 0.9 | Log2 fold-change of gene expression: Ptprb: −2.6 | Log2 fold-change of gene expression: Ptprm: −1.4 | Log2 fold-change of gene expression: RAMP2: −4.4 | Log2 fold-change of gene expression: RASD2: −0.1 | Log2 fold-change of gene expression: Rasip1: −1.7 | Log2 fold-change of gene expression: S1PR1: −1.9 | Log2 fold-change of gene expression: SERPINF1: 1.5 | Log2 fold-change of gene expression: SPHK1: 1.2 | Log2 fold-change of gene expression: STAB1: −0.9 | Log2 fold-change of gene expression: Sdc4: 0.2 | Log2 fold-change of gene expression: Sdpr: 0.0 | Log2 fold-change of gene expression: Slc43a3: 0.0 | Log2 fold-change of gene expression: Slco2a1: −2.9 | Log2 fold-change of gene expression: TEK: 0.7 | Log2 fold-change of gene expression: TGFA: 5.3 | Log2 fold-change of gene expression: TGFB1: −1.3 | Log2 fold-change of gene expression: TGFB2: 1.6 | Log2 fold-change of gene expression: TGFBR1: 1.2 | Log2 fold-change of gene expression: THBS1: −0.6 | Log2 fold-change of gene expression: THBS2: 0.9 | Log2 fold-change of gene expression: THY1: −12.7 | Log2 fold-change of gene expression: TIMP1: −0.7 | Log2 fold-change of gene expression: TIMP2: −0.8 | Log2 fold-change of gene expression: TIMP3: −2.7 | Log2 fold-change of gene expression: TNF: 2.4 | Log2 fold-change of gene expression: TNS1: −0.9 | Log2 fold-change of gene expression: TNS3: 0.6 | Log2 fold-change of gene expression: TRA2B: −0.2 | Log2 fold-change of gene expression: TYMP: −1.1 | Log2 fold-change of gene expression: VEGFA: −0.3 | Log2 fold-change of gene expression: VEGFC: 2.0 | Log2 fold-change of gene expression: VGLL4: −3.5 | Log2 fold-change of gene expression: Vwf: −3.7 | Log2 fold-change of gene expression: copa: 0.0 | Log2 fold-change of gene expression: itbp4: −2.5 | Log2 fold-change of gene expression: ralb: −0.7 | Log2 fold-change of gene expression: stard9: 0.1 | Log2 fold-change of gene expression: B2M (1st listing (r49)): 2.8 | Log2 fold-change of gene expression: HPRT1 (1st listing (r50)): −0.4 | Log2 fold-change of gene expression: RPL13A (1st listing (r51)): −0.8 | Log2 fold-change of gene expression: GADPH (1st listing (r52)): −1.3 | Log2 fold-change of gene expression: ACTB (1st listing (r53)): −0.9 | Log2 fold-change of gene expression: PLXDC1 (1st listing (r74)): −3.2 | Log2 fold-change of gene expression: TNFAIP2 (1st listing (r91)): −0.6 | Log2 fold-change of gene expression: Robo4 (1st listing (r95)): −0.2 | Log2 fold-change of gene expression: 151516 (1st listing (r134)): 0.0 | Log2 fold-change of gene expression: TNFAIP2 (2nd listing (r92)): 2.7 | Log2 fold-change of gene expression: B2M (2nd listing (r97)): −1.2 | Log2 fold-change of gene expression: HPRT1 (2nd listing (r98)): 0.6 | Log2 fold-change of gene expression: RPL13A (2nd listing (r99)): 0.1 | Log2 fold-change of gene expression: GADPH (2nd listing (r100)): −0.1 | Log2 fold-change of gene expression: ACTB (2nd listing (r101)): −0.6 | Log2 fold-change of gene expression: PLXDC1 (2nd listing (r104)): −0.6 | Log2 fold-change of gene expression: 151516 (2nd listing (r139)): 0.0 | Log2 fold-change of gene expression: Robo4 (2nd listing (r188)): −0.3 | Log2 fold-change of gene expression: B2M (3rd listing (r145)): −0.7 | Log2 fold-change of gene expression: HPRT1 (3rd listing (r146)): 1.1 | Log2 fold-change of gene expression: RPL13A (3rd listing (r147)): 0.6 | Log2 fold-change of gene expression: GADPH (3rd listing (r148)): −0.5 | Log2 fold-change of gene expression: ACTB (3rd listing (r149)): −0.5 | Log2 fold-change of gene expression: B2M (4th listing (r193)): −0.8 | Log2 fold-change of gene expression: HPRT1 (4th listing (r194)): 0.4 | Log2 fold-change of gene expression: RPL13A (4th listing (r195)): 0.2 | Log2 fold-change of gene expression: GADPH (4th listing (r196)): −0.5 | Log2 fold-change of gene expression: ACTB (4th listing (r197)): −0.2
